Measured values taken from ChEMBL document CHEMBL1201862, “PubChem BioAssay data set” (2004).
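Step 1: Grow cells in 96-well plates. Step 2: Expose to compound for 48 hours at 5 concentrations. Step 3: Interpolate endpoints linearly; if unreached, use highest concentration. The concentration for 50% growth inhibition is given as GI50.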 Activity calls are given as the source filed them. Rule as the data show it: active = GI50 up to about 1.1 µM and inactive = higher. Square brackets hold non-standard residues; d marks the D form. Peptide text beside a SMILES is read from it. * marks the point of attachment. Boc = CC(C)(C)OC(=O)*; OBn = c1ccc(CO*)cc1

Legend:
Assay in all cases: NCI anticancer screen, dose series, 48 h
LOX IMVI = tested on: LOX IMVI
TK-10 = tested on: TK-10
NCI-H226 = tested on: NCI-H226
A549 = tested on: A549
HL-60 = tested on: HL-60
MDA-MB-231 = tested on: MDA-MB-231
HCT-116 = tested on: HCT-116
MDA-MB-435 = tested on: MDA-MB-435
RPMI-8226 = tested on: RPMI-8226
KM12 = tested on: KM12
UACC-257 = tested on: UACC-257
UO-31 = tested on: UO-31
BT-549 = tested on: BT-549
NCI/ADR-RES = tested on: NCI/ADR-RES
SK-MEL-28 = tested on: SK-MEL-28
EKVX = tested on: EKVX
SN12C = tested on: SN12C
OVCAR-4 = tested on: OVCAR-4
OVCAR-5 = tested on: OVCAR-5
T47D = tested on: T47D
SW-620 = tested on: SW-620
NCI-H23 = tested on: NCI-H23
HCC 2998 = tested on: HCC 2998
DU-145 = tested on: DU-145
Hs-578T = tested on: Hs-578T
ACHN = tested on: ACHN
MDA-N = tested on: MDA-N
SR = tested on: SR
COLO 205 = tested on: COLO 205
HCT-15 = tested on: HCT-15
CCRF-CEM = tested on: CCRF-CEM
NCI-H460 = tested on: NCI-H460
SF-295 = tested on: SF-295
SNB-75 = tested on: SNB-75
MCF7 = tested on: MCF7
RXF 393 = tested on: RXF 393
OVCAR-8 = tested on: OVCAR-8
IGROV-1 = tested on: IGROV-1
Malme-3M = tested on: Malme-3M
SF-268 = tested on: SF-268
HOP-92 = tested on: HOP-92
SNB-19 = tested on: SNB-19
A498 = tested on: A498
OVCAR-3 = tested on: OVCAR-3
SK-OV-3 = tested on: SK-OV-3
CAKI-1 = tested on: CAKI-1
M14 = tested on: M14
SK-MEL-5 = tested on: SK-MEL-5
UACC-62 = tested on: UACC-62
K562 = tested on: K562
HOP-62 = tested on: HOP-62
U-251 = tested on: U-251
MOLT-4 = tested on: MOLT-4
786-0 = tested on: 786-0
PC-3 = tested on: PC-3
SK-MEL-2 = tested on: SK-MEL-2
HT-29 = tested on: HT-29
NCI-H522 = tested on: NCI-H522
SF-539 = tested on: SF-539

Which results are given for `CN1C(=O)N/C(=C\c2ccc(S(=O)(=O)N/N=C/c3ccccc3)cc2)C1=O`?
GI50 (LOX IMVI): 18.1 µM (inactive); GI50 (TK-10): 31 µM (inactive); GI50 (NCI-H226): 74.6 µM (inactive); GI50 (A549): 28.5 µM (inactive); GI50 (HL-60): 4.93 µM (inactive); GI50 (MDA-MB-231): 11 µM (inactive); GI50 (HCT-116): 23.8 µM (inactive); GI50 (MDA-MB-435): 37 µM (inactive); GI50 (RPMI-8226): 18.6 µM (inactive); GI50 (KM12): 15.7 µM (inactive); GI50 (UACC-257): 18.4 µM (inactive); GI50 (UO-31): 15.5 µM (inactive); GI50 (BT-549): 27.7 µM (inactive); GI50 (NCI/ADR-RES): 27.6 µM (inactive); GI50 (SK-MEL-28): 38 µM (inactive); GI50 (EKVX): 53.1 µM (inactive); GI50 (SN12C): 66.2 µM (inactive); GI50 (OVCAR-4): 18.9 µM (inactive); GI50 (OVCAR-5): > 100 µM (inactive); GI50 (T47D): 35.2 µM (inactive); GI50 (SW-620): 91.6 µM (inactive); GI50 (NCI-H23): 23.3 µM (inactive); GI50 (HCC 2998): 32.1 µM (inactive); GI50 (DU-145): 40 µM (inactive); GI50 (Hs-578T): 35.5 µM (inactive); GI50 (ACHN): 24.7 µM (inactive); GI50 (MDA-N): 32 µM (inactive); GI50 (SR): 10.4 µM (inactive); GI50 (COLO 205): 71.9 µM (inactive); GI50 (HCT-15): 10.4 µM; GI50 (CCRF-CEM): 13.3 µM (inactive); GI50 (NCI-H460): 10.5 µM (inactive); GI50 (SF-295): 21.9 µM (inactive); GI50 (SNB-75): 48.3 µM (inactive); GI50 (MCF7): 19.1 µM (inactive); GI50 (RXF 393): 21.2 µM (inactive); GI50 (OVCAR-8): 28.5 µM (inactive); GI50 (IGROV-1): 42.1 µM (inactive); GI50 (Malme-3M): 45.5 µM (inactive); GI50 (SF-268): 26.8 µM (inactive); GI50 (HOP-92): 17.1 µM (inactive); GI50 (SNB-19): 62.2 µM (inactive); GI50 (A498): > 100 µM (inactive); GI50 (OVCAR-3): 30.9 µM (inactive); GI50 (SK-OV-3): > 100 µM (inactive); GI50 (CAKI-1): 21.2 µM (inactive); GI50 (M14): 37 µM (inactive); GI50 (SK-MEL-5): 13.6 µM (inactive); GI50 (UACC-62): 28.9 µM (inactive); GI50 (K562): 30 µM (inactive); GI50 (HOP-62): 64.9 µM (inactive); GI50 (U-251): 40.6 µM (inactive); GI50 (MOLT-4): 14.5 µM (inactive); GI50 (786-0): 34.8 µM (inactive); GI50 (PC-3): 22.1 µM (inactive); GI50 (SK-MEL-2): 15 µM (inactive); GI50 (HT-29): 30.9 µM (inactive)

With `C[C@@H](NC(=O)CNC(=O)OC(C)(C)C)C(=O)N[C@@H](Cc1ccccc1)C(=O)OCc1ccccc1` (Boc-Gly-[dA]-Phe-OBn) as the compound, how does the GI50 (LOX IMVI) read?
Its GI50 is 20.6 µM (inactive).

What about the GI50 (TK-10) of the same compound?
Its GI50 is > 100 µM (inactive).

And the GI50 (NCI-H226)?
The GI50 was 51.1 µM (inactive).

And the GI50 (A549)?
Its GI50 is > 100 µM (inactive).

What about the GI50 (HL-60) of the same compound?
The GI50 was 35.1 µM (inactive).

And the GI50 (MDA-MB-231)?
The GI50 was 37.1 µM (inactive).

And the GI50 (HCT-116)?
The GI50 was 47.3 µM (inactive).

And the GI50 (MDA-MB-435)?
The GI50 was 32.4 µM (inactive).

And the GI50 (KM12)?
The GI50 was > 100 µM (inactive).

What about the GI50 (UACC-257) of the same compound?
Its GI50 is 33.7 µM (inactive).

What about the GI50 (UO-31) of the same compound?
The GI50 was 51.2 µM (inactive).

And the GI50 (BT-549)?
The GI50 was > 100 µM (inactive).

What about the GI50 (NCI/ADR-RES) of the same compound?
The GI50 was > 100 µM (inactive).

And the GI50 (SK-MEL-28)?
Its GI50 is 20.1 µM (inactive).

And the GI50 (EKVX)?
The GI50 was 97.7 µM (inactive).

What about the GI50 (SN12C) of the same compound?
Its GI50 is > 100 µM (inactive).

And the GI50 (OVCAR-4)?
Its GI50 is > 100 µM (inactive).

What about the GI50 (OVCAR-5) of the same compound?
The GI50 was > 100 µM (inactive).

And the GI50 (NCI-H522)?
The GI50 was 26.3 µM (inactive).

And the GI50 (T47D)?
Its GI50 is 63.4 µM (inactive).

And the GI50 (SW-620)?
Its GI50 is 61.7 µM (inactive).

What about the GI50 (NCI-H23) of the same compound?
Its GI50 is > 100 µM (inactive).

And the GI50 (DU-145)?
The GI50 was > 100 µM (inactive).

What about the GI50 (Hs-578T) of the same compound?
Its GI50 is 22.3 µM (inactive).

What about the GI50 (ACHN) of the same compound?
Its GI50 is 57.9 µM (inactive).

And the GI50 (MDA-N)?
Its GI50 is 36.7 µM (inactive).

And the GI50 (SR)?
The GI50 was 19.5 µM (inactive).

What about the GI50 (COLO 205) of the same compound?
The GI50 was 18.2 µM (inactive).

And the GI50 (HCT-15)?
Its GI50 is > 100 µM.

And the GI50 (CCRF-CEM)?
Its GI50 is 19.5 µM (inactive).

What about the GI50 (SF-295) of the same compound?
Its GI50 is > 100 µM (inactive).

What about the GI50 (SNB-75) of the same compound?
The GI50 was 43.9 µM (inactive).

What about the GI50 (MCF7) of the same compound?
The GI50 was > 100 µM (inactive).

And the GI50 (RXF 393)?
The GI50 was 32 µM (inactive).

And the GI50 (OVCAR-8)?
Its GI50 is > 100 µM (inactive).

What about the GI50 (IGROV-1) of the same compound?
Its GI50 is 67.9 µM (inactive).

And the GI50 (Malme-3M)?
The GI50 was 16.2 µM (inactive).

And the GI50 (SF-268)?
The GI50 was 89.1 µM (inactive).

And the GI50 (HOP-92)?
The GI50 was 17.8 µM (inactive).

And the GI50 (SNB-19)?
Its GI50 is > 100 µM (inactive).

What about the GI50 (SK-OV-3) of the same compound?
Its GI50 is > 100 µM (inactive).

What about the GI50 (CAKI-1) of the same compound?
The GI50 was > 100 µM (inactive).

And the GI50 (M14)?
The GI50 was 19.8 µM (inactive).

And the GI50 (SK-MEL-5)?
The GI50 was 22.8 µM (inactive).

And the GI50 (UACC-62)?
The GI50 was 34 µM (inactive).

And the GI50 (K562)?
Its GI50 is 23.1 µM (inactive).

And the GI50 (U-251)?
The GI50 was 71.8 µM (inactive).

What about the GI50 (MOLT-4) of the same compound?
The GI50 was 15 µM (inactive).

What about the GI50 (SF-539) of the same compound?
The GI50 was > 100 µM (inactive).

And the GI50 (786-0)?
Its GI50 is 84.7 µM (inactive).

And the GI50 (PC-3)?
Its GI50 is 49 µM (inactive).

And the GI50 (SK-MEL-2)?
Its GI50 is 26.7 µM (inactive).

What about the GI50 (HT-29) of the same compound?
Its GI50 is 90.4 µM (inactive).
